The values that follow come from patent US10408837B2 (priority 2013, dated 2019).

“And” between values parts separate entries of the source, which are not always exact repeats. Equal values may be shown once.

The experiment addresses BoNT/E (Clostridium botulinum, UniProt Q00496).

Regarding IIIGNLGNEIDTQNRQIDRIMAKAKSKKR [Pep-52], the Relative product was 581 and 511.
